Assay results published in ChEMBL document CHEMBL1201862, “PubChem BioAssay data set” (2004).
Values joined by “and” are separate entries in the source; they are usually repeats but may differ in a detail not shown here. Identical values can stand only once.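 Each compound was tested at five concentrations against cells in 96-well plates for 48 hours. GI50 marks 50% less growth.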 Active and inactive are the calls of the source. Rule as the data show it: active = GI50 up to about 1.1 µM and inactive = higher. Residues, ends and D or L forms follow the SMILES beside them.

Key:
Test in all cases: NCI tumour cell line growth inhibition, 48 h
[1] = system: BT-549
[2] = system: DMS-273
[3] = system: HOP-18
[4] = system: KM-20L2
[5] = system: LXFL 529
[6] = system: M19-MEL
[7] = system: SNB-78
[8] = system: XF498

`CC(=O)c1ccc2c(c1)CC1(C2)Cc2ccc3c(c2C1=O)CCC3` (stereo not given) was tested, and the GI50 [1] was 27.9 µM (inactive).
For `Cc1nc2ccc(C(F)(F)F)cc2nc1NCc1ccc(Cl)c(Cl)c1`, the GI50 [1] was 20.2 µM (inactive).
In the case of `CCCCC(CCCC)=NNC(=S)SC`, the GI50 [1] is reported as 42 µM (inactive).
`N#CC1=C(N)N(c2ccccc2)C(c2ccccc2)C1(C#N)C#N` (stereo not given) was tested, and the GI50 [1] was 16.7 µM (inactive).
In the case of `Nc1ncnc2c1ncn2[C@@H]1C[C@H](NO)[C@@H](O)[C@H]1O`, the GI50 [1] is reported as > 100 µM (inactive).
For `CSc1nc(C#N)c(/N=C\N(C)C)n1C`, the GI50 [1] was > 100 µM (inactive).
For `CCCNCC(O)CNc1ccc(NCC(O)CNCCC)c2c1C(=O)c1ccccc1C2=O` (stereo not given), the GI50 [1] was 2.14 µM (inactive).
For `Cn1cnc(CCc2ccccc2)n1`, the GI50 [2] was > 100 µM (inactive), the GI50 [3] was > 100 µM (inactive) and the GI50 [4] was > 100 µM (inactive). The GI50 [5] was > 100 µM (inactive), the GI50 [6] was > 100 µM (inactive) and the GI50 [7] was > 100 µM (inactive).
In the case of `C=C(Cl)C(Cl)(CBr)CCCC(C)(C)Cl` (stereo not given), the GI50 [1] is reported as 52 µM (inactive).
With `CC(NC(=O)c1ccccc1)(C(=O)O)C(=O)O` the GI50 [1] was > 100 µM (inactive).
With `O=C(NCCCCCCNC(=O)NC1OCC(O)C(O)C1O)NC1OCC(O)C(O)C1O` (stereo not given) the GI50 [5] was > 100 µM (inactive), the GI50 [6] was > 100 µM (inactive) and the GI50 [7] was > 100 µM (inactive).
For `CC(C)OC(=O)[C@@H]1OC(C)(C)O[C@H]1C(=O)OC(C)C`, the GI50 [1] was > 100 µM (inactive).
With `CN1CCN(c2ccc([N+](=O)[O-])c3no[n+]([O-])c23)CC1` the GI50 [1] was 1.09 µM (active).
For `COc1ccc2c(Cl)cc(NC(=S)Nc3ccccc3)nc2c1`, the GI50 [1] was 39 µM (inactive).
In the case of `O=C(/C=C/c1ccc(O)c(O)c1)NC(COC(=O)/C=C/c1ccc(O)c(O)c1)C(=O)O` (stereo not given), the GI50 [1] is reported as > 100 µM (inactive).
In the case of `COC(=O)C1CC(=O)CCC1c1ccccc1` (stereo not given), the GI50 [2] is reported as > 100 µM (inactive), the GI50 [3] is reported as > 100 µM (inactive) and the GI50 [4] is reported as > 100 µM (inactive). For the same compound, the GI50 [5] was > 100 µM (inactive), the GI50 [6] was > 100 µM (inactive) and the GI50 [7] was > 100 µM (inactive).
For `Oc1ccccc1/C=N/c1nc2cc3sc(/N=C/c4ccccc4O)nc3cc2s1`, the GI50 [1] was > 61.8 µM (inactive).
For `CSc1ncnc2c1cnn2Cc1cn(COCCO)nn1`, the GI50 [1] was > 100 µM (inactive).
In the case of `COc1ccc(-c2cn3c(n2)sc2cc(C)ccc23)cc1`, the GI50 [1] is reported as 12.1 µM (inactive).
`Cc1nc2c(nc1C)-c1c(c3c(n1C)C(=O)CCC3)C(=O)C2=O` was tested, and the GI50 [1] was 0.0259 µM (active).
In the case of `COC(=O)CCC1=NCC(C)(C)O1`, the GI50 [1] is reported as > 10 µM (inactive).
`N=C(N)N/N=C/c1c(-c2cc([N+](=O)[O-])c(Cl)cc2Cl)nc2sccn12` was tested, and the GI50 [1] was 1.4 µM (inactive) and 1.46 µM (inactive).
With `O=[N+]([O-])c1cc([N+](=O)[O-])c(Nn2c3ccccc3c3ccccc32)c([N+](=O)[O-])c1` the GI50 [1] was 2.18 µM (inactive).
`COc1ccc2[nH]c3c(C)c4ncccc4c(C)c3c2c1` was tested, and the GI50 [1] was > 10 µM (inactive).
For `O=C(CC1S/C(=N\c2ccccc2Cl)NC1=O)Nc1ccc(Cl)cc1` (stereo not given), the GI50 [2] was > 100 µM (inactive), the GI50 [4] was > 100 µM (inactive) and the GI50 [5] was > 100 µM (inactive). The GI50 [6] was > 100 µM (inactive) and the GI50 [7] was > 100 µM (inactive).
In the case of `CC(=O)NNc1nc(C)c(C(=O)NNC(=O)C(=O)Nc2c(Cl)cc([N+](=O)[O-])cc2Cl)s1`, the GI50 [2] is reported as 32.6 µM (inactive), the GI50 [4] is reported as 31.9 µM (inactive) and the GI50 [5] is reported as 33.7 µM (inactive). For the same compound, the GI50 [6] was 46.6 µM (inactive) and the GI50 [7] was 31.9 µM (inactive).
`CC(NC(=N)N)C(=O)O` (stereo not given) was tested, and the GI50 [1] was > 100 µM (inactive).
In the case of `COc1nc(NC2OC(COC(C)=O)C(OC(C)=O)C(OC(C)=O)C2OC(C)=O)c(/N=C/C=N/c2c(NC3OC(COC(C)=O)C(OC(C)=O)C(OC(C)=O)C3OC(C)=O)nc(OC)[nH]c2=O)c(=O)[nH]1` (stereo not given), the GI50 [3] is reported as > 100 µM (inactive), the GI50 [4] is reported as > 100 µM (inactive) and the GI50 [5] is reported as > 100 µM (inactive). The GI50 [6] was > 100 µM (inactive).
`C/C(=C\COc1ccc2ccc(=O)oc2c1)C1=CC(=O)C(C)(C)O1` [GEIPARVARIN] was tested, and the GI50 [1] was 3.69 µM (inactive), the GI50 [2] was 4.42 µM (inactive) and the GI50 [3] was 66.7 µM (inactive). The GI50 [4] was 3.39 µM (inactive), the GI50 [6] was 4.61 µM (inactive) and the GI50 [7] was 4.15 µM (inactive). For the same compound, the GI50 [8] was 4.1 µM (inactive).
For `CCOC(=O)c1sc(N/N=C2\NC(=O)/C(=C/c3ccc([N+](=O)[O-])cc3)S2)nc1C`, the GI50 [1] was 24 µM (inactive).
For `S=C(c1c[nH]c2ccccc12)N1CCN(c2ccccc2)CC1`, the GI50 [1] was > 100 µM (inactive).
In the case of `CCOP(=O)(/C=C\n1ccc(N)nc1=O)OCC`, the GI50 [1] is reported as > 100 µM (inactive).
In the case of `ClCCC[Si]12OCCN(CCO1)CCO2`, the GI50 [2] is reported as > 100 µM (inactive), the GI50 [5] is reported as > 100 µM (inactive) and the GI50 [6] is reported as > 100 µM (inactive). For the same compound, the GI50 [7] was > 100 µM (inactive).
In the case of `CCN1C(=O)c2ccccc2C1(O)c1ccc(Cl)cc1` (stereo not given), the GI50 [1] is reported as > 100 µM (inactive).
For `c1ccc2c(c1)nc1n2sc2nc3ccccc3n21`, the GI50 [1] was > 100 µM (inactive).
For `O=c1c2ccccc2nc(-c2ccccc2)n1O`, the GI50 [1] was > 100 µM (inactive).
`CC1(C)CCC(=O)NC1CC(=O)CC1NC(=O)CCC1(C)C` (stereo not given) was tested, and the GI50 [1] was > 100 µM (inactive).
In the case of `COCCOCCOC1=CC(=O)c2c(O)ccc(O)c2C1=O`, the GI50 [1] is reported as 1.79 µM (inactive).
`O=C(O)Cc1cccnc1` was tested, and the GI50 [1] was > 100 µM (inactive).
In the case of `CC1(C)CCCCCC(C)(CCCCCCCCCCCO)C1=O` (stereo not given), the GI50 [1] is reported as 18.9 µM (inactive).
For `CC(=O)OC(C)C1C2=C(C(=O)CC1(C)O)C(=O)c1c(ccc(-c3ccc4c(c3O)C(=O)C3=C(C4=O)C(C(C)OC(C)=O)C(C)(O)CC3=O)c1O)C2=O` (stereo not given), the GI50 [1] was 1.28 µM (inactive), the GI50 [2] was 1.52 µM (inactive) and the GI50 [3] was 0.457 µM (active). For the same compound, the GI50 [4] was 2.04 µM (inactive), the GI50 [5] was 0.428 µM (active) and the GI50 [6] was 1.36 µM (inactive). For the same compound, the GI50 [7] was 3.18 µM (inactive).
`N#Cc1ccc(Sc2nc3ccccc3[nH]2)cc1` was tested, and the GI50 [2] was > 100 µM (inactive), the GI50 [3] was > 100 µM (inactive) and the GI50 [5] was 46.7 µM (inactive). The GI50 [6] was 86.1 µM (inactive) and the GI50 [7] was > 100 µM (inactive).
For `Cn1c2ccccc2c2ccc3c(c21)C(=O)c1ccc2c4ccccc4n(C)c2c1C3=O`, the GI50 [1] was > 100 µM (inactive).
For `CC1C(O)Oc2cc3c(cc2C1c1ccccc1O)OCO3` (stereo not given), the GI50 [1] was 34.9 µM (inactive).
In the case of `CCN1c2ccccc2C(C(SC)S(=O)(=O)c2ccc(C)cc2)c2c1[nH]c(=O)n(C)c2=O` (stereo not given), the GI50 [2] is reported as > 100 µM (inactive), the GI50 [3] is reported as 22.9 µM (inactive) and the GI50 [5] is reported as > 100 µM (inactive). For the same compound, the GI50 [6] was > 100 µM (inactive), the GI50 [7] was > 100 µM (inactive) and the GI50 [8] was > 100 µM (inactive).
For `CC(C)c1cc(C(C)C)c(S(=O)(=O)NN)c(C(C)C)c1`, the GI50 [2] was > 100 µM (inactive), the GI50 [3] was > 100 µM (inactive) and the GI50 [4] was > 100 µM (inactive). The GI50 [6] was > 100 µM (inactive) and the GI50 [7] was > 100 µM (inactive).
`O=C1C2=Cc3ccccc3OC2(O)Oc2cc(O)ccc21` (stereo not given) was tested, and the GI50 [1] was > 100 µM (inactive).
`CC(=O)NC(CO)C(=O)NC(Cc1ccc(O)cc1)C(=O)NCC(N)=O` (stereo not drawn) (Ac-Ser-Tyr-Gly-NH2; configuration not given here) was tested, and the GI50 [1] was > 100 µM (inactive).
In the case of `COc1ccc(/C=C2\N=C(c3ccccc3)N(Nc3nnc(NN4C(=O)/C(=C/c5ccc(OC)cc5)N=C4c4ccccc4)c4ccccc34)C2=O)cc1`, the GI50 [2] is reported as 41.3 µM (inactive), the GI50 [3] is reported as 92.3 µM (inactive) and the GI50 [4] is reported as 53.2 µM (inactive). For the same compound, the GI50 [5] was 44.4 µM (inactive), the GI50 [6] was 58.7 µM (inactive) and the GI50 [7] was > 100 µM (inactive).
With `O=C1C[C@@H]2[C@@H](C=CC23CC3)N1O` the GI50 [2] was > 100 µM (inactive), the GI50 [3] was > 100 µM (inactive) and the GI50 [4] was > 100 µM (inactive). The GI50 [5] was > 100 µM (inactive), the GI50 [6] was > 100 µM (inactive) and the GI50 [7] was > 100 µM (inactive).
`CCn1c(-c2ccc(OC)cc2)nc2c1C(=O)c1ccccc1C2=O` was tested, and the GI50 [1] was 67.6 µM (inactive).
In the case of `COc1ccc(C2c3cc4c(cc3OC(N3CCOCC3)C2C)OCO4)c(OC)c1` (stereo not given), the GI50 [1] is reported as 3.23 µM (inactive).
For `COP(=O)(OC)[C@@](O)(c1ccccc1)[C@@H](O)[C@H](O)c1ccccc1`, the GI50 [1] was > 100 µM (inactive).
`CC1(CNCc2ccccc2)CC(CCc2ccccc2)N(C(=O)c2ccc([N+](=O)[O-])cc2)C1Cc1ccc(O)cc1` (stereo not given) was tested, and the GI50 [1] was 16.1 µM (inactive).
